Several values for one entry are separate records, joined by “and”; a condition that tells them apart may be missing. Equal values may be shown once.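 Results reflect a 48-hour exposure of cells in 96-well plates to compound at five concentrations. GI50 = concentration required for 50% inhibition of growth. TGI is the concentration that stops growth completely.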

Test systems include NCI-H460 lung; UO-31 renal; M14 melanoma; RPMI-8226 leukemia; K-562 leukemia; SK-OV-3 ovarian; CAKI-1 renal; NCI-H226 lung; MDA-MB-435; IGROV1 ovarian.
Common to all, as to assay: NCI tumour cell line growth inhibition, 48 h

Consider `OCCN1CCN(CC/C=C2\c3ccccc3Sc3ccc(Cl)cc32)CC1`, for which the GI50 with NCI-H460 lung is 1.89 µM and 2.19 µM; with UO-31 renal, 2.14 µM and 1.96 µM; in the assay with M14 melanoma it was 1.78 µM; in the assay with RPMI-8226 leukemia, 1.17 µM and 3.12 µM; with K-562 leukemia it was 1.52 µM and 1.77 µM; in the assay with SK-OV-3 ovarian, 6.48 µM and 5.76 µM. Moreover, the GI50 in the assay on CAKI-1 renal is 2.31 µM and 2.6 µM; in the assay with NCI-H226 lung, 6.93 µM; with MDA-MB-435, 1.99 µM and 2.01 µM; with IGROV1 ovarian, 3.21 µM and 3.51 µM. Further, the TGI in the assay with NCI-H460 lung is 3.75 µM and 4.5 µM; in the assay with UO-31 renal it was 7.66 µM and 6.24 µM; in the assay with M14 melanoma, 4.27 µM and 3.22 µM; with RPMI-8226 leukemia, 3.11 µM and 10.8 µM; in the assay on K-562 leukemia it was 2.94 µM and 3.68 µM; with SK-OV-3 ovarian, 19.1 µM and 16.9 µM. For the same compound, the TGI in the assay on CAKI-1 renal is 10.4 µM and 8.18 µM; in the assay on NCI-H226 lung, 22.1 µM; in the assay with MDA-MB-435 it was 4.78 µM and 4.63 µM; in the assay on IGROV1 ovarian, 12.7 µM and 11 µM.
For `CCc1nc(N)nc(N)c1-c1ccc(Cl)c(N=CN(C)C)c1`, the TGI in the assay on NCI-H460 lung is more than 95.2 µM; in the assay with UO-31 renal it was more than 100 µM; in the assay with M14 melanoma, more than 100 µM; in the assay with RPMI-8226 leukemia, more than 100 µM; in the assay with K-562 leukemia it was more than 100 µM; with SK-OV-3 ovarian it was more than 100 µM. The TGI in the assay with CAKI-1 renal, in the assay with NCI-H226 lung, in the assay with MDA-MB-435 and in the assay with IGROV1 ovarian was more than 100 µM in each case.
As to `COc1cc(Cl)cc(-c2nn(-c3cccc(NC(=O)Nc4ccc(Cl)c(C(F)(F)F)c4)c3)cc2-c2ccncc2)c1`, the GI50 in the assay with NCI-H460 lung is 0.77 µM; in the assay with UO-31 renal, 1.66 µM; in the assay on M14 melanoma, 1.33 µM; with RPMI-8226 leukemia it was 0.402 µM; in the assay on K-562 leukemia, 0.537 µM; in the assay with SK-OV-3 ovarian it was 3.15 µM. Besides, the GI50 is 0.816 µM in the assay on CAKI-1 renal, 2.5 µM with NCI-H226 lung, 1.76 µM with MDA-MB-435 and 3.2 µM in the assay with IGROV1 ovarian. Further, the TGI in the assay on NCI-H460 lung worked out at 4.08 µM; with UO-31 renal, 10.9 µM; in the assay on M14 melanoma, 3.47 µM; in the assay on RPMI-8226 leukemia it was 2.07 µM; in the assay with K-562 leukemia, 10.1 µM; in the assay with SK-OV-3 ovarian it was 9.85 µM. Besides, the TGI in the assay on CAKI-1 renal stood at 9.43 µM; in the assay on NCI-H226 lung it was 14.7 µM; in the assay on MDA-MB-435, 4.36 µM; with IGROV1 ovarian, 29.1 µM.
For the compound `Cc1cc(OCc2nnc3n2N=C(c2ccc(Cl)cc2Cl)CS3)ccc1Cl`, the GI50 with NCI-H460 lung was 62.8 µM; with UO-31 renal, 34 µM; in the assay on M14 melanoma it was 43.4 µM; in the assay with RPMI-8226 leukemia, 40.6 µM; in the assay with K-562 leukemia, 54.7 µM; in the assay on SK-OV-3 ovarian, more than 100 µM. Besides, the GI50 in the assay on CAKI-1 renal was 44.2 µM; in the assay on NCI-H226 lung, 43.6 µM; in the assay with MDA-MB-435, 26.5 µM; in the assay with IGROV1 ovarian, 52.3 µM. For the same compound, the TGI in the assay on NCI-H460 lung, in the assay with UO-31 renal, in the assay with M14 melanoma, in the assay on RPMI-8226 leukemia, in the assay with K-562 leukemia and in the assay with SK-OV-3 ovarian was more than 100 µM throughout. Besides, the TGI in the assay on CAKI-1 renal, in the assay on NCI-H226 lung, in the assay with MDA-MB-435 and in the assay with IGROV1 ovarian was more than 100 µM each time.
With `Cn1cnc([N+](=O)[O-])c1Sc1ncn[nH]1`, the GI50 in the assay on NCI-H460 lung was more than 100 µM; in the assay on UO-31 renal it was 35.2 µM; in the assay with M14 melanoma, more than 100 µM; in the assay on RPMI-8226 leukemia it was 43.9 µM; with K-562 leukemia, 32.3 µM; in the assay with SK-OV-3 ovarian, more than 100 µM. The GI50 with CAKI-1 renal was 30.7 µM; in the assay with NCI-H226 lung it was more than 100 µM; with MDA-MB-435, more than 100 µM; in the assay on IGROV1 ovarian, 40.7 µM. In addition, the TGI in the assay with NCI-H460 lung, in the assay on UO-31 renal, with M14 melanoma, in the assay with RPMI-8226 leukemia, in the assay on K-562 leukemia and in the assay on SK-OV-3 ovarian was more than 100 µM each time. Also, the TGI with CAKI-1 renal, in the assay with NCI-H226 lung, in the assay on MDA-MB-435 and with IGROV1 ovarian was more than 100 µM in each case.
With `O=C1OC(CN2CCOCC2)CN1/N=C/c1ccc([N+](=O)[O-])o1` (stereo not given), the TGI in the assay with NCI-H460 lung is more than 100 µM; in the assay with UO-31 renal it was more than 100 µM; in the assay on M14 melanoma, 45.6 µM; with RPMI-8226 leukemia, more than 100 µM; in the assay with K-562 leukemia it was more than 100 µM; in the assay with SK-OV-3 ovarian it was more than 100 µM. Moreover, the TGI was more than 100 µM in the assay with CAKI-1 renal, more than 100 µM with NCI-H226 lung, 33.3 µM with MDA-MB-435 and 84.8 µM in the assay with IGROV1 ovarian.
As for `C/C=C(\C)C(=O)N[C@H]1C(O)C[C@]2(C)C3CC[C@@]4(C)C(CC[C@@H]4C(C)N(C)C)C3CCC2C1O` (stereo not given in full), the GI50 in the assay on NCI-H460 lung was 2.07 µM; with UO-31 renal, 2.03 µM; with M14 melanoma it was 2.02 µM; in the assay with RPMI-8226 leukemia, 5.95 µM; in the assay on K-562 leukemia, 1.9 µM; in the assay with SK-OV-3 ovarian, 16.1 µM. Further, the GI50 in the assay on CAKI-1 renal is 9.42 µM; with NCI-H226 lung, 12.1 µM; with MDA-MB-435, 2.54 µM; in the assay with IGROV1 ovarian, 13.3 µM. Moreover, the TGI amounted to 4.59 µM in the assay with NCI-H460 lung; 5.73 µM in the assay with UO-31 renal; 3.88 µM with M14 melanoma; 25.5 µM with RPMI-8226 leukemia; 8.34 µM in the assay with K-562 leukemia; 42.4 µM with SK-OV-3 ovarian. The TGI with CAKI-1 renal is 38.8 µM; in the assay with NCI-H226 lung it was more than 70.2 µM; with MDA-MB-435 it was 5.85 µM; in the assay with IGROV1 ovarian, more than 43.7 µM.

Source of the values: PubChem BioAssay (NCI).
